This assay concerns the target T1, cIAP1 (Homo sapiens, UniProt Q13490).
T1 construct: induce autoubiquitination and degradation of cIAP1 in MDA-MB-231 breast cancer cells; endogenous in cells; host or cells: MDA-MB-231
Kind of assay: Western blot analysis of cIAP1 autoubiquitination and proteasomal degradation in MDA-MB-231 cells. The assay is classed as cell-based. Conditions: 10 µM, 15 and 120 min. How it is done:
Prior to Western blot sample collection, cells were harvested by trypsinization, counted and seeded on 50 mm Petri dishes. After overnight incubation, the culture medium was replaced with fresh medium containing the tested compounds at the target concentration ranges with 0.1% (v/v) DMSO as a control. Next, the cells were washed with PBS and lysed with ice-cold RIPA buffer containing protease and phosphatase inhibitors (Sigma-Aldrich, Poznań, Poland), and after debris removal (4 °C, 15 min, 16,000 × g), the lysates were used in further experiments.
MDA-MB-231 cell lysates (25 µg of total protein/lane) were resolved by SDS-PAGE (4–12%, Tris-glycine, reducing conditions) and transferred onto a nitrocellulose membrane (0.45 µm pore size; Thermo Scientific, Gdańsk, Poland) using the semi-dry blotting system (Cleaver Scientific, Rugby, UK). The membrane was washed with 10 mM PBS (pH 7.4; 5 min, r.t.) and blocked with 5% skim milk in PBS supplemented with 0.05% Tween-20 (PBST) for 1 h at r.t. Subsequently, the membrane was washed with PBST (3 times for 5 min, r.t.) and incubated with rabbit anti-cIAP1 monoclonal IgG (1:1,000 in 0.5% skim milk in PBST; 4 °C, overnight; Cell Signaling Technology, Warszawa, Poland, Cat# 7065, D5G9). […]
For orientation: In western blotting, separated proteins are transferred to a membrane and probed.

The structures appear in SMILES notation.

T1 sequence (Q13490 whole entry): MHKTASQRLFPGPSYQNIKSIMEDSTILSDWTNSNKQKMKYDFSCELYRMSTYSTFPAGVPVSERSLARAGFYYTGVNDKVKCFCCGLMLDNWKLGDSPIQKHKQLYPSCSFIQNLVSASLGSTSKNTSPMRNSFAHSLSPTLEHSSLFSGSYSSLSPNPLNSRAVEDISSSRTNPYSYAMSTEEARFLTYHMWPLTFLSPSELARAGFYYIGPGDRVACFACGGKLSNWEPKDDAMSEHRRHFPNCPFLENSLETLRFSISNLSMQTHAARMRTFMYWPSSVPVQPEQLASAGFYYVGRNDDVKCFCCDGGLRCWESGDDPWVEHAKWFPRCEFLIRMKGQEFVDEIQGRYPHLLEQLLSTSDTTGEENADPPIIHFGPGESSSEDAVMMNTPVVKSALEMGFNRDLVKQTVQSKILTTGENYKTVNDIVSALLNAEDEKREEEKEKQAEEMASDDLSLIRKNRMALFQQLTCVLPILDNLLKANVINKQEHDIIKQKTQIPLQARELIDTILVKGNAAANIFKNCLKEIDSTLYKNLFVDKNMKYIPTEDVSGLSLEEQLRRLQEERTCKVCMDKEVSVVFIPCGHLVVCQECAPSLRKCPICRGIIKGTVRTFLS

`CN[C@@H](C)C(=O)N[C@H](C(=O)N1CCC[C@H]1C(=O)NC(Cc1ccccc1)P(=O)(Oc1ccccc1)Oc1ccccc1)C(C)C` (stereo partly drawn) [Compound 41, diphenyl (1-((S)-1-((S)-3-methyl-2-((S)-2-(methylamino)propanamido)butanoyl)pyrrolidine-2-carboxamido)-2-phenylethyl)phosphonate]: the “induction of autoubiquitination and degradation of cIAP1” value is recorded as “greatest ability to induce cIAP1 degradation”.

As for `CN[C@@H](C)C(=O)N[C@H](C(=O)N1CCC[C@H]1C(=O)NC(Cc1ccccc1)P(=O)(Oc1ccccc1)Oc1ccccc1)C1CCCCC1` (stereo partly drawn) [Compound 42, diphenyl (1-((S)-1-((S)-2-cyclohexyl-2-((S)-2-(methylamino)propanamido)acetyl)pyrrolidine-2-carboxamido)-2-phenylethyl)phosphonate], the “induction of autoubiquitination and degradation of cIAP1” value is given as “greatest ability to induce cIAP1 degradation”.
